Results as given in paper PMC12446476 (Nature Communications, 2025).
Values after ≈ are worked out from the molar mass of the structure shown. Like-named read-outs stand apart in the source and are kept apart here.

Test system: N. gonorrhoeae
Test: MIC determination, agar dilution (CLSI)
Format: cell-based, Neisseria gonorrhoeae
Conditions: Neisseria gonorrhoeae
Method in brief: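 For N. gonorrhoeae, WHO 2024 reference strains served as quality control, only whole doubling-dilution MICs were reported, and isolates were classified by EUCAST v14.0 breakpoints or ECOFF. Time-kill assays followed CLSI in Columbia broth with 1% IsoVitaleX, and viable counts came from plating serial dilutions on GC agar with IsoVitaleX.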

## Cc1c(CN(C)C(=O)/C=C/c2cnc3c(c2)N[C@H](C)[C@H](O)C(=O)N3)oc2ccccc12 [Debio 1453]
Clinical N. gonorrhoeae isolate 67, Sweden 2023, read-out: Minimum inhibitory concentration
  MIC: 0.032 µg/mL (≈ 0.0761 µM)
Clinical N. gonorrhoeae isolate 68, Sweden 2023, read-out: Minimum inhibitory concentration
  MIC: 0.064 µg/mL (≈ 0.152 µM)
Clinical N. gonorrhoeae isolate 69, Sweden 2023, read-out: Minimum inhibitory concentration
  MIC: 0.064 µg/mL (≈ 0.152 µM)
Clinical N. gonorrhoeae isolate 70, Sweden 2023, read-out: Minimum inhibitory concentration
  MIC: 0.064 µg/mL (≈ 0.152 µM)
Clinical N. gonorrhoeae isolate 71, Sweden 2023, read-out: Minimum inhibitory concentration
  MIC: 0.064 µg/mL (≈ 0.152 µM)
Clinical N. gonorrhoeae isolate 72, Sweden 2023, read-out: Minimum inhibitory concentration
  MIC: 0.064 µg/mL (≈ 0.152 µM)
Clinical N. gonorrhoeae isolate 73, Sweden 2023, read-out: Minimum inhibitory concentration
  MIC: 0.032 µg/mL (≈ 0.0761 µM)
Clinical N. gonorrhoeae isolate 74, Sweden 2023, read-out: Minimum inhibitory concentration
  MIC: 0.064 µg/mL (≈ 0.152 µM)
Clinical N. gonorrhoeae isolate 75, Sweden 2023, read-out: Minimum inhibitory concentration
  MIC: 0.008 µg/mL (≈ 0.019 µM)
Clinical N. gonorrhoeae isolate 76, Sweden 2023, read-out: Minimum inhibitory concentration
  MIC: 0.064 µg/mL (≈ 0.152 µM)
Clinical N. gonorrhoeae isolate 77, Sweden 2023, read-out: Minimum inhibitory concentration
  MIC: 0.064 µg/mL (≈ 0.152 µM)
Clinical N. gonorrhoeae isolate 78, Sweden 2023, read-out: Minimum inhibitory concentration
  MIC: 0.032 µg/mL (≈ 0.0761 µM)
Clinical N. gonorrhoeae isolate 79, Sweden 2023, read-out: Minimum inhibitory concentration
  MIC: 0.032 µg/mL (≈ 0.0761 µM)
Clinical N. gonorrhoeae isolate 80, Sweden 2023, read-out: Minimum inhibitory concentration
  MIC: 0.032 µg/mL (≈ 0.0761 µM)
Clinical N. gonorrhoeae isolate 81, Sweden 2023, read-out: Minimum inhibitory concentration
  MIC: 0.064 µg/mL (≈ 0.152 µM)
Clinical N. gonorrhoeae isolate 82, Sweden 2023, read-out: Minimum inhibitory concentration
  MIC: 0.032 µg/mL (≈ 0.0761 µM)
Clinical N. gonorrhoeae isolate 83, Sweden 2023, read-out: Minimum inhibitory concentration
  MIC: 0.064 µg/mL (≈ 0.152 µM)
Clinical N. gonorrhoeae isolate 84, Sweden 2023, read-out: Minimum inhibitory concentration
  MIC: 0.064 µg/mL (≈ 0.152 µM)
Clinical N. gonorrhoeae isolate 85, Sweden 2023, read-out: Minimum inhibitory concentration
  MIC: 0.008 µg/mL (≈ 0.019 µM)
Clinical N. gonorrhoeae isolate 86, Sweden 2023, read-out: Minimum inhibitory concentration
  MIC: 0.032 µg/mL (≈ 0.0761 µM)
Clinical N. gonorrhoeae isolate 87, Sweden 2023, read-out: Minimum inhibitory concentration
  MIC: 0.016 µg/mL (≈ 0.0381 µM)
Clinical N. gonorrhoeae isolate 88, Sweden 2023, read-out: Minimum inhibitory concentration
  MIC: 0.064 µg/mL (≈ 0.152 µM)
Clinical N. gonorrhoeae isolate 89, Sweden 2023, read-out: Minimum inhibitory concentration
  MIC: 0.032 µg/mL (≈ 0.0761 µM)
Clinical N. gonorrhoeae isolate 90, Sweden 2023, read-out: Minimum inhibitory concentration
  MIC: 0.125 µg/mL (≈ 0.297 µM)
Clinical N. gonorrhoeae isolate 91, Sweden 2023, read-out: Minimum inhibitory concentration
  MIC: 0.032 µg/mL (≈ 0.0761 µM)
Clinical N. gonorrhoeae isolate 92, Sweden 2023, read-out: Minimum inhibitory concentration
  MIC: 0.016 µg/mL (≈ 0.0381 µM)
Clinical N. gonorrhoeae isolate 93, Sweden 2023, read-out: Minimum inhibitory concentration
  MIC: 0.125 µg/mL (≈ 0.297 µM)
Clinical N. gonorrhoeae isolate 94, Sweden 2023, read-out: Minimum inhibitory concentration
  MIC: 0.064 µg/mL (≈ 0.152 µM)
Clinical N. gonorrhoeae isolate 95, Sweden 2023, read-out: Minimum inhibitory concentration
  MIC: 0.064 µg/mL (≈ 0.152 µM)
Clinical N. gonorrhoeae isolate 96, Sweden 2023, read-out: Minimum inhibitory concentration
  MIC: 0.032 µg/mL (≈ 0.0761 µM)
Clinical N. gonorrhoeae isolate 97, Sweden 2023, read-out: Minimum inhibitory concentration
  MIC: 0.064 µg/mL (≈ 0.152 µM)
Clinical N. gonorrhoeae isolate 98, Sweden 2023, read-out: Minimum inhibitory concentration
  MIC: 0.064 µg/mL (≈ 0.152 µM)
Clinical N. gonorrhoeae isolate 99, Sweden 2023, read-out: Minimum inhibitory concentration
  MIC: 0.008 µg/mL (≈ 0.019 µM)
Clinical N. gonorrhoeae isolate 100, Sweden 2023, read-out: Minimum inhibitory concentration
  MIC: 0.008 µg/mL (≈ 0.019 µM)
read-out: MIC relevant for mutant selection assay, WHO Z
  MIC: 0.125 µg/mL (≈ 0.297 µM)
Screening panel N. gonorrhoeae isolate A, read-out: Minimum inhibitory concentration
  MIC: 0.06 µg/mL (≈ 0.143 µM)
Screening panel N. gonorrhoeae isolate B, read-out: Minimum inhibitory concentration
  MIC: 0.03 µg/mL (≈ 0.0713 µM)
Screening panel N. gonorrhoeae isolate C, read-out: Minimum inhibitory concentration
  MIC: 0.03 µg/mL (≈ 0.0713 µM)
Screening panel N. gonorrhoeae isolate D, read-out: Minimum inhibitory concentration
  MIC: 0.03 µg/mL (≈ 0.0713 µM)
Screening panel N. gonorrhoeae isolate E, read-out: Minimum inhibitory concentration
  MIC: 0.03 µg/mL (≈ 0.0713 µM)
Screening panel N. gonorrhoeae isolate F, read-out: Minimum inhibitory concentration
  MIC: 0.125 µg/mL (≈ 0.297 µM)
Screening panel N. gonorrhoeae isolate G, read-out: Minimum inhibitory concentration
  MIC: 0.125 µg/mL (≈ 0.297 µM)
Screening panel N. gonorrhoeae isolate H, read-out: Minimum inhibitory concentration
  MIC: 0.06 µg/mL (≈ 0.143 µM)
Screening panel N. gonorrhoeae isolate I, read-out: Minimum inhibitory concentration
  MIC: 0.03 µg/mL (≈ 0.0713 µM)
